These results are taken from patent US9040516B2, “Uracil derivative and use thereof for medical purposes” (SUMITOMO DAINIPPON PHARMA CO., LTD., priority 2011, dated 2015).

Molecules are shown by their SMILES.

The assay concerns the target T1, human neutrophil elastase (Homo sapiens, UniProt P08246).
T1 construct: purchased Elastin Products Company
T1 sequence (P08246 30-267): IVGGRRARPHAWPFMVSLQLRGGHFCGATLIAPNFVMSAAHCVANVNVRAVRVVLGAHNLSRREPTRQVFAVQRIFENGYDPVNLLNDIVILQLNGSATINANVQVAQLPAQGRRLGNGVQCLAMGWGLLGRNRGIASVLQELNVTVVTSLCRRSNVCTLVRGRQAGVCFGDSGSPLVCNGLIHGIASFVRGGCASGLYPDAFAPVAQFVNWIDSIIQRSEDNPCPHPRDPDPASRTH
The experiment in a line: Inhibitory action against human neutrophil elastase (Test Example 1; fluorogenic substrate MeOSuc-AAPV-AMC, buffer with 2M NaCl, 0.002% Brij-35). Format: biochemical. Particulars: for IC50: 37° C., read-out: IC50 value (compound concentration required for 50% inhibition of human neutrophil elastase); for Inhibition ratio (%): at 100 μM. As to the method: Assay buffer (0.4 unit/ml HNE (human neutrophil elastase, available from Elastin Products Company), 200 mM HEPES [N-(2-hydroxyethyl)piperazine-N′-(2-ethanesulfonic acid)], pH 7.5, 2M NaCl, 0.002% Brij-35) 100 μl, water for injection 40 μl and DMSO (dimethyl sulfoxide) solution of the present compound 20 μl were mixed in a 96 well plate and the mixed solutions were pre-incubated at 37° C. for five minutes. After pre-incubation, MeOSuc-AAPV-AMC (methoxysuccinyl-alanyl-alanyl-prolyl-valyl-aminomethyl cumaride (available from Sigma Aldrich Co.) solution as fluorogenic substrate (which was dissolved in 10% DMSO solution so as to adjust to 0.5 mM) 40 μl was added to the above-prepared mixed solution so as to initiate the reaction, and the mixture was incubated at 37° C. for five minutes. The fluorescence intensity of AMC was measured at an excitation wavelength of 380 nm and a fluorescence wavelength of 460 nm and the inhibition ratio was determined.

As for `Cc1c(-c2ccnn2-c2ccc(C#N)cc2)c(=O)n(CC(=O)OCc2ccccc2)c(=O)n1-c1cccc(C(F)(F)F)c1` [Example 6, 2-[5-[1-(4-cyanophenyl)-1H-pyrazol-5-yl]-4-methyl-2,6-dioxo-3-(3-trifluoromethylphenyl)-2,3-dihydropyrimidin-1(6H)-yl]acetic acid benzyl ester], the IC50 is 123 nM.
On the same count and under the same terms, as for `COC(Cn1c(=O)c(-c2ccnn2-c2ccc(C#N)cc2)c(C)n(-c2cccc(C(F)(F)F)c2)c1=O)OC` [Example 7, 4-[5-[3-(2,2-dimethoxyethyl)-6-methyl-2,4-dioxo-1-(3-trifluoromethylphenyl)-1,2,3,4-tetrahydropyrimidin-5-yl]-1H-pyrazol-1-yl]benzonitrile], the figure is 120 nM; as for `Cc1c(-c2ccnn2-c2ccc(C#N)cc2)c(=O)n(CCCCCNC(=O)OC(C)(C)C)c(=O)n1-c1cccc(C(F)(F)F)c1` [Example 8, tert-butyl 5-[5-[1-(4-cyanophenyl)-1H-pyrazol-5-yl]-4-methyl-2,6-dioxo-3-(3-trifluoromethyl)-2,3-dihydropyrimidine-1(6H)-yl]pentylcarbamate], 64 nM; as for `COc1ccc(Cn2c(=O)c(-c3ccnn3-c3ccc(C#N)cc3)c(C)n(-c3cccc(C(F)(F)F)c3)c2=O)cc1` [Example 9, 4-[5-[3-(4-methoxybenzyl)-6-methyl-2,4-dioxo-1-(3-trifluoromethylphenyl)-1,2,3,4-tetrahydropyrimidin-5-yl]-1H-pyrazol-1-yl]benzonitrile], 2950 nM.
Take `Cc1c(-c2ccnn2-c2ccc(C#N)cc2)c(=O)n(C)c(=O)n1-c1cccc(C#N)c1` [Example 10, 3-[5-[1-(4-cyanophenyl)-1H-pyrazol-5-yl]-3,6-dimethyl-2,4-dioxo-3,4-dihydropyrimidin-1(2H)-yl]benzonitrile]: the IC50 turned out to be 648 nM.
Take `Cc1c(-c2ccnn2-c2ccc(C#N)cc2)c(=O)n(C)c(=O)n1-c1cccc(F)c1` [Example 11, 4-[5-[1-(3-fluorophenyl)-3,6-dimethyl-2,4-dioxo-1,2,3,4-tetrahydropyrimidin-5-yl]-1H-pyrazol-1-yl]benzonitrile]: the IC50 came to 1360 nM.
`COc1cccc(-n2c(C)c(-c3ccnn3-c3ccc(C#N)cc3)c(=O)n(C)c2=O)c1` [Example 12, 4-[5-[1-(3-methoxyphenyl)-3,6-dimethyl-2,4-dioxo-1,2,3,4-tetrahydropyrimidin-5-yl]-1H-pyrazol-1-yl]benzonitrile]: the IC50 stood at 1490 nM.
As to `Cc1c(-c2ccnn2-c2ccc(C#N)cc2)c(=O)n(C)c(=O)n1-c1ccc(F)c(C(F)(F)F)c1` [Example 13, 4-[5-[1-(4-fluoro-3-trifluorophenyl)-3,6-dimethyl-2,4-dioxo-1,2,3,4-tetrahydropyrimidin-5-yl]-1H-pyrazol-1-yl]benzonitrile], the IC50 was 86 nM.
Consider `Cc1c(-c2ccnn2-c2ccc(C#N)cc2)c(=O)n(C)c(=O)n1-c1ccccc1` [Example 14, 4-[5-(1-phenyl-3,6-dimethyl-2,4-dioxo-1,2,3,4-tetrahydropyrimidin-5-yl)-1H-pyrazol-1-yl]benzonitrile], for which the IC50 turned out to be 12600 nM.
As to `Cc1c(-c2ccnn2-c2ccc(C#N)cc2)c(=O)n(C)c(=O)n1-c1ccccc1C(F)(F)F` [Example 15, 4-[5-[3,6-dimethyl-2,4-dioxo-1-(2-trifluoromethylphenyl)-1,2,3,4-tetrahydropyrimidin-5-yl]-1H-pyrazol-1-yl]benzonitrile], the “Inhibition ratio (%)” value stood at 76%.
For the compound `Cc1c(-c2ccnn2-c2ccc(C#N)cc2)c(=O)n(C)c(=O)n1-c1ccc(C(F)(F)F)cc1` [Example 16, 4-[5-[3,6-dimethyl-2,4-dioxo-1-(4-trifluoromethylphenyl)-1,2,3,4-tetrahydropyrimidin-5-yl]-1H-pyrazol-1-yl]benzonitrile], the “Inhibition ratio (%)” value was determined as 90%.
Consider `Cc1c(-c2ccnn2-c2ccc(C#N)cc2)c(=O)n(C)c(=O)n1-c1cccc([N+](=O)[O-])c1` [Example 18, 4-[5-[1-(3-nitrophenyl)-3,6-dimethyl-2,4-dioxo-1,2,3,4-tetrahydropyrimidin-5-yl]-1H-pyrazol-1-yl]benzonitrile], for which the IC50 is 47 nM.
`Cc1c(-c2ccnn2-c2ccccc2)c(=O)n(C)c(=O)n1-c1cccc(C(F)(F)F)c1` [Example 20, 3,6-dimethyl-5-(1-phenyl-1H-pyrazol-5-yl)-1-(3-trifluoromethylphenyl)pyrimidin-2,4(1H,3H)-dione]: the “Inhibition ratio (%)” value was 83%.
As for `Cc1c(-c2ccnn2-c2ccc(F)cc2)c(=O)n(C)c(=O)n1-c1cccc(C(F)(F)F)c1` [Example 22, 5-[1-(4-fluorophenyl)-1H-pyrazol-5-yl]-3,6-dimethyl-1-(3-trifluoromethylphenyl)pyrimidin-2,4(1H,3H)-dione], the IC50 came to 793 nM.
Still for that read-out and setting: as for `Cc1c(-c2ccnn2-c2ccc(C#N)nc2)c(=O)n(C)c(=O)n1-c1cccc(C(F)(F)F)c1` [Example 23, 5-[5-[3,6-dimethyl-2,4-dioxo-1-(3-trifluoromethylphenyl)-1,2,3,4-tetrahydropyrimidin-5-yl]-1H-pyrazol-1-yl]picolinonitrile], the figure is 651 nM.
Consider `CN(C)C=Nc1c(-c2ccnn2-c2ccc(C#N)cc2)c(=O)n(C)c(=O)n1-c1cccc(C(F)(F)F)c1` [Example 28, N′-[5-[1-(4-cyanophenyl)-1H-pyrazol-5-yl]-1-methyl-2,6-dioxo-3-(3-trifluoromethylphenyl)-1,2,3,6-tetrahydropyrimidin-4-yl]-N,N-dimethylformimidamide], for which the IC50 worked out at 2240 nM.
In the case of `CCCn1c(=O)c(-c2ccnn2-c2ccc(C#N)cc2)c(N=CN(C)C)n(-c2cccc([N+](=O)[O-])c2)c1=O` [Example 29, N′-[5-[1-(4-cyanophenyl)-1H-pyrazol-5-yl]-3-(3-nitrophenyl)-2,6-dioxo-1-propyl-1,2,3,6-tetrahydropyrimidin-4-yl]-N,N-dimethylformimidamide], the IC50 was 2140 nM.
Still for that read-out and setting: as for `Cc1c(-c2ccnn2-c2ccc(C#N)cc2)c(=O)n(CCCCCNC(=O)OC(C)(C)C)c(=O)n1-c1cccc(C(F)(F)F)c1` [Example 30, Tert-butyl 5-[5-[1-(4-cyanophenyl)-1H-pyrazol-5-yl]-4-methyl-2,6-dioxo-3-(3-trifluoromethyl)-2,3-dihydropyrimidine-1 (6H)-yl]pentylcarbamate], the figure is 64 nM.
Regarding `Cc1c(-c2ccnn2-c2ccc(C#N)cc2)c(=O)n(C)c(=O)n1-c1cccc(C(F)(F)F)c1` [Example 31, 4-[5-[3,6-dimethyl-2,4-dioxo-1-(3-trifluoromethylphenyl)-1,2,3,4-tetrahydropyrimidin-5-yl]-1H-pyrazol-1-yl]benzonitrile], the IC50 was 19 nM.
In the case of `COC(=O)c1cccc(-n2c(C)c(-c3ccnn3-c3ccc(C#N)cc3)c(=O)n(C)c2=O)c1` [Example 32, 3-[5-[1-(4-cyanophenyl)-1H-pyrazol-5-yl]-3,6-dimethyl-2,4-dioxo-3,4-dihydropyrimidin-1(2H)-yl]benzoic acid methyl ester], the “Inhibition ratio (%)” value is 50%.
In the case of `Cc1c(-c2ccnn2-c2ccc(C#N)cc2)c(=O)n(C)c(=O)n1-c1cccc(C(F)(F)F)n1` [Example 33, 4-[5-[3,6-dimethyl-2,4-dioxo-1-(6-trifluoromethylpyridine-2-yl)-1,2,3,4-tetrahydropyrimidin-5-yl]-1H-pyrazol-1-yl]benzonitrile], the IC50 came to 74600 nM.
For the compound `Cc1c(-c2ccnn2-c2ccc(C#N)cc2)c(=O)n(C)c(=O)n1-c1cccc(Br)c1` [Example 34, 4-[5-[1-(3-bromophenyl)-3,6-dimethyl-2,4-dioxo-1,2,3,4-tetrahydropyrimidin-5-yl]-1H-pyrazol-1-yl]benzonitrile], the IC50 is 232 nM.
As to `Cc1c(-c2ccnn2-c2cccc(C#N)c2)c(=O)n(C)c(=O)n1-c1cccc(C(F)(F)F)c1` [Example 35, 3-[5-[3,6-dimethyl-2,4-dioxo-1-(3-trifluoromethylphenyl)-1,2,3,4-tetrahydropyrimidin-5-yl]-1H-pyrazol-1-yl]benzonitrile], the “Inhibition ratio (%)” value is listed as 49%.
As to `CSc1cc(C#N)ccc1-n1nccc1-c1c(C)n(-c2cccc(C(F)(F)F)c2)c(=O)n(C)c1=O` [Example 36, 4-[5-[3,6-dimethyl-2,4-dioxo-1-(3-trifluoromethylphenyl)-1,2,3,4-tetrahydropyrimidin-5-yl]-1H-pyrazol-1-yl]-3-(methylthio)benzonitrile], the IC50 stood at 111 nM.
Consider `Cc1c(-c2ccnn2-c2ccc(C#N)cc2)c(=O)n(C)c(=O)n1-c1cccc(C(C)(C)C)c1` [Example 38, 4-(5-(1-(3-tert-butylphenyl)-3,6-dimethyl-2,4-dioxo-1,2,3,4-tetrahydropyrimidin-5-yl)-1H-pyrazol-1-yl)benzonitrile], for which the IC50 is 7910 nM.
`Cc1c(-c2ccnn2-c2ccc(C#N)cc2)c(=O)n(C)c(=O)n1-c1cccc(S(C)(=O)=O)c1` [Example 39, 4-(5-(3,6-dimethyl-1-(3-(methylsulfonyl)phenyl)-2,4-dioxo-1,2,3,4-tetrahydropyrimidin-5-yl)-1H-pyrazol-1-yl)benzonitrile]: the IC50 worked out at 19900 nM.
